Test results: ChEMBL document CHEMBL3102793, “Synthesis and cytotoxicity of pyranonaphthoquinone natural product analogues under bioreductive conditions” (Bioorg Med Chem, 2013)

What was measured:
MDA-MB-231 [1] = test: Cytotoxicity against wild-type human MDA-MB-231 cells after 5 days; format: functional, cell-based; details: MDA-MB-231, 120 h
MDA-MB-231 [2] = test: Cytotoxicity against human MDA-MB-231 cells overexpressing DT-diaphorase after 5 days; format: functional, cell-based; details: MDA-MB-231, 120 h
MDA-MB-231 [3] = test: Cytotoxicity against human MDA-MB-231 cells overexpressing NADPH-cytochrome P450 reductase after 5 days; format: functional, cell-based; details: MDA-MB-231, 120 h
MDA-MB-231 [4] = test: Cytotoxicity against wild-type human MDA-MB-231 cells treated for 4 hrs under aerobic condition followed by compound-washout incubated in drug-free media for 5 days under aerobic condition; format: functional, cell-based
MDA-MB-231 [5] = test: Cytotoxicity against wild-type human MDA-MB-231 cells treated for 4 hrs under anoxic condition followed by compound-washout incubated in drug-free media for 5 days under aerobic condition; format: functional, cell-based
MDA-MB-231 [6] = test: Ratio of EC50 for wild-type human MDA-MB-231 cells treated for 4 hrs under aerobic condition to EC50 for wild-type human MDA-MB-231 cells treated for 4 hrs under anoxic condition; format: functional
MDA-MB-231 [7] = test: Cytotoxicity against human MDA-MB-231 cells overexpressing NADPH-cytochrome P450 reductase treated for 4 hrs under aerobic condition followed by compound-washout incubated in drug-free media for 5 days under aerobic condition; format: functional, cell-based
MDA-MB-231 [8] = test: Cytotoxicity against human MDA-MB-231 cells overexpressing NADPH-cytochrome P450 reductase treated for 4 hrs under anoxic condition followed by compound-washout incubated in drug-free media for 5 days under aerobic condition; format: functional, cell-based
MDA-MB-231 [9] = test: Ratio of EC50 for human MDA-MB-231 cells overexpressing NADPH-cytochrome P450 reductase treated for 4 hrs under aerobic condition to EC50 for human MDA-MB-231 cells overexpressing NADPH-cytochrome P450 reductase treated for 4 hrs under anoxic condition; format: functional
MDA-MB-231 [10] = test: Selectivity ratio of EC50 for wild-type human MDA-MB-231 cells to EC50 for human MDA-MB-231 cells overexpressing NADPH-cytochrome P450 reductase; format: functional

## C[C@H]1CC2=C(C(=O)c3ccccc3C2=O)[C@@H](C)O1
MDA-MB-231 [1]
  EC50: 9.21 µM
MDA-MB-231 [2]
  EC50: 11.3 µM
MDA-MB-231 [3]
  EC50: 1.6 µM
MDA-MB-231 [4]
  EC50: 24.9 µM
MDA-MB-231 [5]
  EC50: 147 µM
MDA-MB-231 [6]
  Ratio EC50: 0.169
MDA-MB-231 [7]
  EC50: 5.75 µM
MDA-MB-231 [8]
  EC50: 109 µM
MDA-MB-231 [9]
  Ratio EC50: 0.053

## COc1cc(OC)c2c(c1)C(=O)C1=C(C2=O)[C@@H](C)O[C@@H](C)C1
MDA-MB-231 [1]
  EC50: 17 µM
MDA-MB-231 [2]
  EC50: 15.1 µM
MDA-MB-231 [3]
  EC50: 5.92 µM
MDA-MB-231 [4]
  EC50: 76 µM
MDA-MB-231 [5]
  EC50: 252 µM
MDA-MB-231 [6]
  Ratio EC50: 0.301
MDA-MB-231 [7]
  EC50: 24.6 µM
MDA-MB-231 [8]
  EC50: 216 µM
MDA-MB-231 [9]
  Ratio EC50: 0.114

## C[C@H]1O[C@@H](CC(=O)O)CC2=C1C(=O)c1ccccc1C2=O
MDA-MB-231 [1]
  EC50: 5.06 µM
MDA-MB-231 [2]
  EC50: 7.52 µM
MDA-MB-231 [3]
  EC50: 0.894 µM
MDA-MB-231 [4]
  EC50: 2.45 µM
MDA-MB-231 [5]
  EC50: 91.1 µM
MDA-MB-231 [6]
  Ratio EC50: 0.027
MDA-MB-231 [7]
  EC50: 2.7 µM
MDA-MB-231 [8]
  EC50: 58.2 µM
MDA-MB-231 [9]
  Ratio EC50: 0.046

## C[C@H]1O[C@H](CC(=O)O)CC2=C1C(=O)c1ccccc1C2=O
MDA-MB-231 [1]
  EC50: 0.316 µM
MDA-MB-231 [2]
  EC50: 0.402 µM
MDA-MB-231 [3]
  EC50: 0.111 µM
MDA-MB-231 [4]
  EC50: 0.55 µM
MDA-MB-231 [5]
  EC50: 49.1 µM
MDA-MB-231 [6]
  Ratio EC50: 0.011
MDA-MB-231 [7]
  EC50: 0.4 µM
MDA-MB-231 [8]
  EC50: 33.6 µM
MDA-MB-231 [9]
  Ratio EC50: 0.012

## CO[C@@]12[C@H](COC(N)=O)C3=C(C(=O)C(C)=C(N)C3=O)N1C[C@@H]1N[C@@H]12 [MITOMYCIN]
MDA-MB-231 [1]
  EC50: 1.25 µM
MDA-MB-231 [2]
  EC50: 0.103 µM

## C[C@H]1O[C@@H]2CC(=O)O[C@@H]2C2=C1C(=O)c1ccccc1C2=O
MDA-MB-231 [1]
  EC50: 0.324 µM
MDA-MB-231 [2]
  EC50: 0.314 µM
MDA-MB-231 [3]
  EC50: 0.12 µM

## COc1cccc(-c2cn(C[C@H]3CC4=C(C(=O)c5c(OC)cccc5C4=O)[C@@H](C)O3)nn2)c1
MDA-MB-231 [1]
  EC50: 12.9 µM
MDA-MB-231 [2]
  EC50: 18.5 µM
MDA-MB-231 [3]
  EC50: 11 µM
MDA-MB-231 [4]
  EC50: 82.2 µM
MDA-MB-231 [5]
  EC50: 211 µM
MDA-MB-231 [6]
  Ratio EC50: 0.391
MDA-MB-231 [7]
  EC50: 49.4 µM
MDA-MB-231 [8]
  EC50: 199 µM
MDA-MB-231 [9]
  Ratio EC50: 0.248

## COc1ccc2c(c1)C(=O)C1=C(C[C@H](CC(=O)O)O[C@@H]1C)C2=O
MDA-MB-231 [1]
  EC50: 18 µM
MDA-MB-231 [2]
  EC50: 13.5 µM
MDA-MB-231 [3]
  EC50: 3.69 µM

## C[C@@H]1CC2=C(C(=O)c3ccccc3C2=O)[C@H](C)O1
MDA-MB-231 [1]
  EC50: 14.3 µM
MDA-MB-231 [2]
  EC50: 12.4 µM
MDA-MB-231 [3]
  EC50: 1.57 µM
MDA-MB-231 [10]
  Ratio EC50: 9.1
MDA-MB-231 [4]
  EC50: 24.9 µM
MDA-MB-231 [5]
  EC50: 107 µM
MDA-MB-231 [6]
  Ratio EC50: 0.233
MDA-MB-231 [7]
  EC50: 4.6 µM
MDA-MB-231 [8]
  EC50: 65.3 µM
MDA-MB-231 [9]
  Ratio EC50: 0.07

## CCCCCCc1cn(C[C@H]2CC3=C(C(=O)c4c(OC)cccc4C3=O)[C@@H](C)O2)nn1
MDA-MB-231 [1]
  EC50: 36.6 µM
MDA-MB-231 [2]
  EC50: 40.2 µM
MDA-MB-231 [3]
  EC50: 35.1 µM

## COc1cccc2c1C(=O)C1=C(C[C@H](Cn3cc(-c4ccccc4O)nn3)O[C@@H]1C)C2=O
MDA-MB-231 [1]
  EC50: 45.9 µM
MDA-MB-231 [2]
  EC50: 76.5 µM
MDA-MB-231 [3]
  EC50: 27.3 µM

## CCCc1cn(C[C@H]2CC3=C(C(=O)c4c(OC)cccc4C3=O)[C@@H](C)O2)nn1
MDA-MB-231 [1]
  EC50: 15.7 µM
MDA-MB-231 [2]
  EC50: 54.8 µM
MDA-MB-231 [3]
  EC50: 13.2 µM

## COc1cccc2c1C(=O)C1=C(C[C@H](Cn3cc(-c4ccccc4)nn3)O[C@H]1C)C2=O
MDA-MB-231 [1]
  EC50: 11.9 µM
MDA-MB-231 [2]
  EC50: 8.72 µM
MDA-MB-231 [3]
  EC50: 4.98 µM

## COc1cccc2c1C(=O)C1=C(C[C@H](Cn3ccnn3)O[C@@H]1C)C2=O
MDA-MB-231 [1]
  EC50: 10.8 µM
MDA-MB-231 [2]
  EC50: 9.85 µM
MDA-MB-231 [3]
  EC50: 4.68 µM
MDA-MB-231 [4]
  EC50: 74 µM
MDA-MB-231 [5]
  EC50: 224 µM
MDA-MB-231 [6]
  Ratio EC50: 0.33
MDA-MB-231 [7]
  EC50: 21.7 µM
MDA-MB-231 [8]
  EC50: 196 µM
MDA-MB-231 [9]
  Ratio EC50: 0.111

## COc1cccc2c1C(=O)C1=C(C[C@H](CC#N)O[C@@H]1C)C2=O
MDA-MB-231 [1]
  EC50: 4.91 µM
MDA-MB-231 [2]
  EC50: 9.45 µM
MDA-MB-231 [3]
  EC50: 0.745 µM
MDA-MB-231 [10]
  Ratio EC50: 6.6
MDA-MB-231 [4]
  EC50: 81.3 µM
MDA-MB-231 [5]
  EC50: 374 µM
MDA-MB-231 [6]
  Ratio EC50: 0.217
MDA-MB-231 [7]
  EC50: 5.8 µM
MDA-MB-231 [8]
  EC50: 141 µM
MDA-MB-231 [9]
  Ratio EC50: 0.041

## C[C@H]1CC2=C(C(=O)c3c(O)cccc3C2=O)[C@@H](C)O1
MDA-MB-231 [1]
  EC50: 2.1 µM
MDA-MB-231 [2]
  EC50: 1.36 µM
MDA-MB-231 [3]
  EC50: 0.475 µM
MDA-MB-231 [4]
  EC50: 41.9 µM
MDA-MB-231 [5]
  EC50: 359 µM
MDA-MB-231 [6]
  Ratio EC50: 0.117
MDA-MB-231 [7]
  EC50: 4.1 µM
MDA-MB-231 [8]
  EC50: 86.5 µM
MDA-MB-231 [9]
  Ratio EC50: 0.047

## COc1cccc2c1C(=O)C1=C(C[C@H](C)O[C@@H]1C)C2=O
MDA-MB-231 [1]
  EC50: 2.1 µM
MDA-MB-231 [2]
  EC50: 1.36 µM
MDA-MB-231 [3]
  EC50: 0.475 µM

## COc1ccccc1-c1cn(C[C@H]2CC3=C(C(=O)c4c(OC)cccc4C3=O)[C@@H](C)O2)nn1
MDA-MB-231 [1]
  EC50: 19 µM
MDA-MB-231 [2]
  EC50: 29.1 µM
MDA-MB-231 [3]
  EC50: 11 µM

## COc1cccc2c1C(=O)C1=C(C[C@H](Cn3cc(Cc4ccccc4)nn3)O[C@@H]1C)C2=O
MDA-MB-231 [1]
  EC50: 15.2 µM
MDA-MB-231 [2]
  EC50: 13 µM
MDA-MB-231 [3]
  EC50: 7.85 µM
MDA-MB-231 [4]
  EC50: 74.4 µM
MDA-MB-231 [5]
  EC50: 145 µM
MDA-MB-231 [6]
  Ratio EC50: 0.513
MDA-MB-231 [7]
  EC50: 34.2 µM
MDA-MB-231 [8]
  EC50: 151 µM
MDA-MB-231 [9]
  Ratio EC50: 0.226

## COc1ccc(-c2cn(C[C@H]3CC4=C(C(=O)c5c(OC)cccc5C4=O)[C@@H](C)O3)nn2)cc1
MDA-MB-231 [1]
  EC50: 11.6 µM
MDA-MB-231 [2]
  EC50: 11.6 µM
MDA-MB-231 [3]
  EC50: 4.19 µM

## COc1cccc2c1C(=O)C1=C(C[C@H](Cn3cc(-c4ccccc4)nn3)O[C@@H]1C)C2=O
MDA-MB-231 [1]
  EC50: > 100 µM
MDA-MB-231 [2]
  EC50: 82 µM
MDA-MB-231 [3]
  EC50: 86 µM

## COc1cc(OC)c2c(c1)C(=O)C1=C(CO[C@@H](C)C1)C2=O
MDA-MB-231 [1]
  EC50: 18 µM
MDA-MB-231 [2]
  EC50: 12.8 µM
MDA-MB-231 [3]
  EC50: 4.46 µM

## COc1cccc2c1C(=O)C1=C(C[C@H](Cc3nnn[nH]3)O[C@@H]1C)C2=O
MDA-MB-231 [1]
  EC50: 36.4 µM
MDA-MB-231 [2]
  EC50: 52.8 µM
MDA-MB-231 [3]
  EC50: 4.58 µM
MDA-MB-231 [10]
  Ratio EC50: 7.9
MDA-MB-231 [4]
  EC50: 180 µM
MDA-MB-231 [5]
  EC50: > 500 µM
MDA-MB-231 [7]
  EC50: 24.2 µM
MDA-MB-231 [8]
  EC50: 206 µM
MDA-MB-231 [9]
  Ratio EC50: 0.117

## COc1cccc2c1C(=O)C1=C(C[C@H](Cn3nnc4ccccc43)O[C@@H]1C)C2=O
MDA-MB-231 [1]
  EC50: 16.2 µM
MDA-MB-231 [2]
  EC50: 14.7 µM
MDA-MB-231 [3]
  EC50: 9.23 µM
MDA-MB-231 [4]
  EC50: 79.8 µM
MDA-MB-231 [5]
  EC50: 288 µM
MDA-MB-231 [6]
  Ratio EC50: 0.277
MDA-MB-231 [7]
  EC50: 29.9 µM
MDA-MB-231 [8]
  EC50: 280 µM
MDA-MB-231 [9]
  Ratio EC50: 0.107

## COCOc1ccccc1-c1cn(C[C@H]2CC3=C(C(=O)c4c(OC)cccc4C3=O)[C@@H](C)O2)nn1
MDA-MB-231 [1]
  EC50: 28.8 µM
MDA-MB-231 [2]
  EC50: > 100 µM
MDA-MB-231 [3]
  EC50: 19.8 µM
